# Data taken from PubChem BioAssay (NCI).
# Values joined by “and” are separate entries in the source; they are usually repeats but may differ in a detail not shown here. Equal entries are not always repeated.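 Each compound was tested at five concentrations against cells in 96-well plates for 48 hours. GI50 = concentration required for 50% inhibition of growth. Definition used: TGI = concentration required for complete inhibition of growth.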
# Legend:
# Test in all cases: growth of human tumour cells (NCI), 48 h
# BT-549 breast = tested on: BT-549 breast
# COLO 205 colon = tested on: COLO 205 colon
# MDA-MB-231 breast = tested on: MDA-MB-231 breast
# MDA-MB-435 = tested on: MDA-MB-435
# OVCAR-5 ovarian = tested on: OVCAR-5 ovarian
# SK-OV-3 ovarian = tested on: SK-OV-3 ovarian
# SW-620 colon = tested on: SW-620 colon
# U251 CNS = tested on: U251 CNS
# UACC-62 melanoma = tested on: UACC-62 melanoma
# UO-31 renal = tested on: UO-31 renal
Compound,GI50 (BT-549 breast),TGI (BT-549 breast),GI50 (COLO 205 colon),TGI (COLO 205 colon),GI50 (MDA-MB-231 breast),TGI (MDA-MB-231 breast),GI50 (MDA-MB-435),TGI (MDA-MB-435),GI50 (OVCAR-5 ovarian),TGI (OVCAR-5 ovarian),GI50 (SK-OV-3 ovarian),TGI (SK-OV-3 ovarian),GI50 (SW-620 colon),TGI (SW-620 colon),GI50 (U251 CNS),TGI (U251 CNS),GI50 (UACC-62 melanoma),TGI (UACC-62 melanoma),GI50 (UO-31 renal),TGI (UO-31 renal)
O=C1c2ccccc2-c2c1c1c(=O)[nH]c3ccccc3c1n2Cc1ccccc1,19.5 µM,34.7 µM,> 100 µM,> 100 µM,20.5 µM,48 µM,> 100 µM,> 100 µM,49.5 µM,> 100 µM,20.7 µM,45.8 µM,> 100 µM,> 100 µM,16.6 µM,34.1 µM,33.8 µM,> 100 µM,> 100 µM,> 100 µM
CCCNNC(=O)/C=C/c1ccc(CNCCc2c(C)[nH]c3ccccc23)cc1,0.28 µM,4.71 µM,0.0111 µM,0.0428 µM,0.0708 µM,3.74 µM,0.0494 µM,0.464 µM,0.0116 µM,0.191 µM,0.0357 µM,0.482 µM,0.0177 µM,0.237 µM,0.0306 µM,0.207 µM,0.0237 µM,0.0744 µM,0.0593 µM,0.601 µM
C=C1C(=O)O[C@H]2[C@H]1CC/C(COC(=O)CSCCSCC(=O)OC/C1=C/CC[C@@]3(C)O[C@H]3[C@H]3OC(=O)C(=C)[C@@H]3CC1)=C\CC[C@@]1(C)O[C@@H]21,1.64 µM,3.27 µM,1.48 µM,2.95 µM,1.58 µM,3.14 µM,2.18 µM,5.22 µM,2.04 µM,4.58 µM,4.48 µM,15.3 µM,1.48 µM,3.45 µM,1.66 µM,3.51 µM,2.31 µM,5.16 µM,1.41 µM,2.75 µM
COc1cc(/C=C2\C(=O)Nc3cc(C)c(O)cc32)cc(OC)c1OC,1.86 µM,6.26 µM,6.09 µM,22.8 µM,3.25 µM,23.1 µM,1.52 µM,3.7 µM,13.5 µM,30.4 µM,7.34 µM,54.1 µM,4.08 µM,15.9 µM,3.54 µM,16.1 µM,3.82 µM,16.8 µM,4.94 µM,41.6 µM
CC(C)(C)C(=O)c1c(C(F)(F)F)n([O-])c2ccccc2[n+]1=O,0.428 µM,1.59 µM,0.616 µM,1.73 µM,0.56 µM,2.3 µM,0.606 µM,1.68 µM,0.998 µM,2.15 µM,1.67 µM,3.07 µM,0.467 µM,2 µM,0.341 µM,1.16 µM,1.33 µM,2.66 µM,0.342 µM,0.729 µM
COc1ccc2c(c1)C(=O)c1c-2n(CCCN=[N+]=[N-])c(=O)c2cc(OC)c(OC)cc12,> 100 µM,> 100 µM,> 100 µM,> 100 µM,> 100 µM,> 100 µM,> 100 µM,> 100 µM,> 100 µM,> 100 µM,41.6 µM,> 100 µM,> 100 µM,> 100 µM,24.2 µM,> 100 µM,21 µM,> 100 µM,44.3 µM,> 100 µM
O=c1c(Oc2ccc(F)cc2F)cc2cnc(NC3CCOCC3)nc2n1CCCO,> 25 µM,> 25 µM,> 25 µM,> 25 µM,> 25 µM,> 25 µM,> 25 µM,> 25 µM,> 25 µM,> 25 µM,> 25 µM,> 25 µM,> 25 µM,> 25 µM,> 25 µM,> 25 µM,> 25 µM,> 25 µM,> 11.3 µM,> 21.1 µM
COC(=O)c1c2c(c[n+]([O-])c1C)C(=O)C=CC2=O,1.78 µM,3.23 µM,1.85 µM,3.93 µM,2.01 µM,5.46 µM,1.68 µM,3.15 µM,1.9 µM,3.85 µM,19.3 µM,51.1 µM,2.08 µM,5.36 µM,2.15 µM,5.22 µM,1.81 µM,3.4 µM,1.52 µM,3.03 µM
FC(F)c1nc2ccccc2n1-c1nc(N2CCOCC2)nc(N2CCOCC2)n1,0.0992 µM and 0.145 µM,1.26 µM and 3.97 µM,0.277 µM and 0.507 µM,,0.448 µM and 2.13 µM,,0.397 µM and 0.429 µM,,0.329 µM and 0.447 µM,> 100 µM,0.175 µM and 0.27 µM,1.03 µM and 1.94 µM,0.573 µM and 1.16 µM,> 100 µM,0.735 µM and 0.559 µM,> 100 µM,0.0752 µM and 0.233 µM,0.86 µM and 1.94 µM,0.046 µM and 0.103 µM,0.835 µM and 1.38 µM
Cc1nc(SCC(=O)Nc2nc(-c3ccc(Cl)cc3)cs2)n(Nc2ccccc2)c1C,7.02 µM,20.9 µM,4.13 µM,14.5 µM,3.01 µM,15.2 µM,3.25 µM,21.8 µM,2.65 µM,13.5 µM,5.91 µM,19.8 µM,5.5 µM,22.9 µM,3.13 µM,13 µM,3.09 µM,16.1 µM,3.59 µM,37.7 µM
C#CCOc1cccc(-c2ncnc3cc(NC(=O)CCl)ccc23)c1,0.849 µM,2.31 µM,0.0976 µM,2.77 µM,0.481 µM,4.57 µM,0.993 µM,2.92 µM,1.19 µM,2.86 µM,2.22 µM,7.38 µM,0.0221 µM,1.51 µM,0.149 µM,2.76 µM,0.481 µM,3.07 µM,0.36 µM,2.1 µM
Cn1cc(C2=C(c3cn(CCCCN)c4ccccc34)C(=O)NC2=O)c2ccccc21,> 25 µM,> 25 µM,> 25 µM,> 25 µM,> 25 µM,> 25 µM,> 25 µM,> 25 µM,> 25 µM,> 25 µM,> 25 µM,> 25 µM,> 25 µM,> 25 µM,> 25 µM,> 25 µM,> 25 µM,> 25 µM,> 25 µM,> 25 µM
Cc1cnc(NC(=O)Nc2cc(Br)c(C)cc2OC[C@@H]2CNCCO2)cn1,1.28 µM and 1.29 µM,> 10 µM and 13.6 µM,2.58 µM and 2.72 µM,9.03 µM and 8.55 µM,2.96 µM and 1.48 µM,> 10 µM and 7.39 µM,0.459 µM and 0.378 µM,3.58 µM and 2.43 µM,2.1 µM and 1.96 µM,> 10 µM and 13.4 µM,0.916 µM and 0.474 µM,> 10 µM and 12.3 µM,3.68 µM and 3.28 µM,> 10 µM and 13.4 µM,2.44 µM and 3.07 µM,> 10 µM and 13.9 µM,1.19 µM,6.82 µM,0.483 µM and 1.06 µM,> 10 µM and 12 µM
COc1cccc(-c2nc3sccn3c2-c2ccnc(NCCCNS(=O)(=O)c3cccc(F)c3)c2)c1,2.39 µM,7.05 µM,2.22 µM,11.1 µM,3.62 µM,> 100 µM,2.29 µM,5.71 µM,4.41 µM,> 100 µM,4.86 µM,> 100 µM,3.16 µM,> 100 µM,4.77 µM,> 100 µM,1.62 µM,5 µM,1.25 µM,5.37 µM
COc1cc(NC(N)=NCCC(C)(C)Oc2ccc(C(F)(F)F)cc2)ncc1C#N,1.81 µM,3.38 µM,1.58 µM,3.06 µM,1.75 µM,3.21 µM,1.73 µM,3.17 µM,1.88 µM,3.36 µM,1.84 µM,3.26 µM,1.69 µM,3.46 µM,1.79 µM,3.22 µM,1.78 µM,3.18 µM,1.48 µM,2.85 µM
CC(=O)O[C@H]1CC[C@@]2(C)C(=CC[C@H]3[C@@H]4CC[C@H](c5cc(C(F)(F)F)n(C(C)=O)n5)[C@@]4(C)CC[C@@H]32)C1,,25.8 µM,,14.5 µM,,14.8 µM,,21.4 µM,,22.1 µM,,25.4 µM,,49 µM,,16.5 µM,,24.5 µM,,3.23 µM
Cc1ccc(-c2csc(/N=C3\C(=O)Nc4ccccc43)n2)cc1,1.49 µM,3.06 µM,1.31 µM,3.23 µM,1.52 µM,3.48 µM,1.38 µM,2.87 µM,1.93 µM,4.57 µM,1.61 µM,3.55 µM,1.62 µM,3.66 µM,1.46 µM,3.05 µM,1.37 µM,2.83 µM,1.96 µM,22.4 µM
O=S(=O)(Nc1ccccc1Cl)c1ccc(-c2cnc(C3CC3)o2)cc1,2.12 µM,69.3 µM,0.489 µM,5.58 µM,1.92 µM,84.9 µM,0.0552 µM,0.388 µM,2.44 µM,> 100 µM,1.23 µM,> 67.7 µM,0.312 µM,> 100 µM,0.583 µM,> 100 µM,0.402 µM,47.6 µM,0.832 µM,> 77.1 µM
Oc1[nH]c2ccccc2c1N=Nc1ccccn1,,> 100 µM,,> 100 µM,,38.1 µM,,> 100 µM,,> 100 µM,,38.1 µM,,> 100 µM,,46.6 µM,,> 100 µM,,33.7 µM
